Assay results: patent US20230113037A1 (Bayer Aktiengesellschaft, priority 2019, published 2023)
“And” between values parts separate entries of the source, which are not always exact repeats. Equal entries are not always repeated. Where two headings read alike, the source gives them in different places.

Legend:
AHR [1] = biological target: T1, AHR (Mus musculus, UniProt P30561); assay: In vitro assay 3: antagonism in mouse cell line (AHR transactivation, firefly luciferase reporter, kynurenic acid prestimulated); type: cell-based; conditions: 200 μM kynurenic acid, 20 hours, read-out: AHR Antagonism Mouse IC50
T1 sequence (P30561 1-848 P471L/N533S/M589L): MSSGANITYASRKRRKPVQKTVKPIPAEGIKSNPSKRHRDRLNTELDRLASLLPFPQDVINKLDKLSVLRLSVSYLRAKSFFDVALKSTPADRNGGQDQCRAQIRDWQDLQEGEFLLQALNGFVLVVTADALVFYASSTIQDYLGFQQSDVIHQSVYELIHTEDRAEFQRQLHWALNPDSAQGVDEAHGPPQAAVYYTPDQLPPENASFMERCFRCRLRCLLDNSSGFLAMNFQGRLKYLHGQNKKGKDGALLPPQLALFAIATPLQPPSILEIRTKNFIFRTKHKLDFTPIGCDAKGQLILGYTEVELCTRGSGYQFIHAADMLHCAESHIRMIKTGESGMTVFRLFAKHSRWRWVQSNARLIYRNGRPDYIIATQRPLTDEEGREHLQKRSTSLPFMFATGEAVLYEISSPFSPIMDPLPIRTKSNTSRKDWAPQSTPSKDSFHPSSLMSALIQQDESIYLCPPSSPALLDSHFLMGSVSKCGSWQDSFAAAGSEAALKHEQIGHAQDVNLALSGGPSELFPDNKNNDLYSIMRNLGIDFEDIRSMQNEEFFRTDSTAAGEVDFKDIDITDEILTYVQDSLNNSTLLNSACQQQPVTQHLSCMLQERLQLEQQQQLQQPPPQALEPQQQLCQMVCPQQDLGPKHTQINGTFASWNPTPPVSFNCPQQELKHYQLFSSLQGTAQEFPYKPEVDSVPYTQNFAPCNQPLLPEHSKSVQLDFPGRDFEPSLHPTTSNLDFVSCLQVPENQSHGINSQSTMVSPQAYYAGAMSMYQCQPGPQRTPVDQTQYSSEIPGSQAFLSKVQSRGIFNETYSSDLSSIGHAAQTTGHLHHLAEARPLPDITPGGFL
In short: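 Cells were first stimulated with kynurenic acid, then exposed to test compound, after which firefly luciferase from a DRE-containing AHR reporter was read out. Signal was scaled between positive and negative controls. Cells not given kynurenic acid provided the inhibition reference.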

AHR [2] = biological target: T2, AHR (Homo sapiens, UniProt P35869); assay: In vitro assay 1: antagonism in human cell line (AHR transactivation, firefly luciferase reporter, kynurenic acid prestimulated); type: cell-based; conditions: AHR Antagonism Human IC50 [M]
T2 construct: U87 MG glioblastoma cells (ATCC #HTB-14) endogenously expressing AHR; endogenous in cells; host or cells: U87 MG glioblastoma cells (ATCC #HTB-14)
T2 sequence (P35869 11-848): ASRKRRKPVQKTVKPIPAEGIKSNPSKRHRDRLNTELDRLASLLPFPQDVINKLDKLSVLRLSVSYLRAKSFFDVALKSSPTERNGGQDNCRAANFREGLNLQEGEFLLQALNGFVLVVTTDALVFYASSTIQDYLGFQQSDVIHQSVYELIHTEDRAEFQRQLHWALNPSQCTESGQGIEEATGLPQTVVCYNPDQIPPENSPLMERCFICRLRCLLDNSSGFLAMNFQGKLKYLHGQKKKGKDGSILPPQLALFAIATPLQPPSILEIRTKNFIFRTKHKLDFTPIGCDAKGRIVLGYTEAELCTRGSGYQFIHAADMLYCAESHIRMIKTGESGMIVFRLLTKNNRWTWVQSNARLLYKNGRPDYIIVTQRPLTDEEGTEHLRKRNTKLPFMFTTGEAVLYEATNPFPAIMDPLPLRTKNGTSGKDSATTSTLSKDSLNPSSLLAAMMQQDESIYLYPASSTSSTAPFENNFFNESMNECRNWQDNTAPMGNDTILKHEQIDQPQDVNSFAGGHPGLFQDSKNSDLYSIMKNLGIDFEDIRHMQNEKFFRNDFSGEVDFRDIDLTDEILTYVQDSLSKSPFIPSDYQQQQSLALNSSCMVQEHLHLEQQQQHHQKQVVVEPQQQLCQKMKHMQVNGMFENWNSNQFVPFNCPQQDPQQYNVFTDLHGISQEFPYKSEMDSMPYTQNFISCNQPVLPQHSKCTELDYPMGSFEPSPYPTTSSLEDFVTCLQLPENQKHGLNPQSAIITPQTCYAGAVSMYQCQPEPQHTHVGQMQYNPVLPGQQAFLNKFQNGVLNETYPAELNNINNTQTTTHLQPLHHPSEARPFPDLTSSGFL
In short: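 U87 MG glioblastoma cells with endogenous AHR, stably carrying a DRE-driven firefly luciferase reporter and constitutive Renilla reporter, prestimulated with kynurenic acid before compound addition. Firefly and Renilla read by dual luciferase; Renilla flags toxicity; normalized to controls (150 μM kynurenic acid + 5 μM staurosporine as full inhibition); repeat values averaged or median.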

[3] = Hepa 1c1c7 cells, firefly luciferase reporter

Row | SMILES | IC50 (AHR [1]; mouse Hepa 1c1c7 cells) | IC50 (AHR [2]) | IC50 (AHR [1]; [3]) | IC50 (AHR [2]; firefly luciferase reporter)
1 | COc1ccc(-c2nc3c4cccc(C5(C(F)(F)F)CC5)c4nc(N[C@@H]4CCCCNC4=O)n3n2)cc1 [Example 398, (3R)-3-({2-(4-methoxyphenyl)-7-[1-(trifluoromethyl)cyclopropyl][1,2,4]triazolo[1,5-c]quinazolin-5-yl}amino)azepan-2-one] | 135 nM | 2.24e-08 M | – | –
2 | COc1ccc(-c2nc3c4ccc(F)cc4nc(N[C@@H]4CCCCNC4=O)n3n2)cc1 [Example 153, (3R)-3-{[8-fluoro-2-(4-methoxyphenyl)[1,2,4]triazolo[1,5-c]quinazolin-5-yl]amino}azepan-2-one] | 1.18 nM | 4.35e-10 M | – | –
3 | Cn1cc(-c2nc3c4ccccc4nc(NC4CCCNC4=O)n3n2)cn1 (single isomer, unassigned) [Example 21, 3-{[2-(1-methyl-1H-pyrazol-4-yl)[1,2,4]triazolo[1,5-c]quinazolin-5-yl]amino}piperidin-2-one] | > 20000 nM and 19700 nM | 1.29e-05 M | – | –
4 | CCC[C@@H](Nc1nc2ccccc2c2nc(-c3cc(C(F)(F)F)ccn3)nn12)C(=O)NC [Example 368, N-methyl-N^2-{2-[4-(trifluoromethyl)pyridin-2-yl][1,2,4]triazolo[1,5-c]quinazolin-5-yl}-D-norvalinamide] | 24.8 nM | 5e-08 M | – | –
5 | COc1cccc(-c2nc3c4ccccc4nc(NC4CNCCNC4=O)n3n2)c1 (single isomer, unassigned) [Example 117, 6-{[2-(3-methoxyphenyl)[1,2,4]triazolo[1,5-c]quinazolin-5-yl]amino}-1,4-diazepan-5-one] | 76.5 nM | 9.04e-08 M | – | –
6 | N#Cc1cccc2nc(N[C@@H]3CCCCNC3=O)n3nc(-c4cccc(F)c4)nc3c12 [Example 249, 2-(3-fluorophenyl)-5-{[(3R)-2-oxoazepan-3-yl]amino}[1,2,4]triazolo[1,5-c]quinazoline-10-carbonitrile] | 3.63 nM | 2.96e-08 M | – | –
7 | CC[C@@H](Nc1nc2ccccc2c2nc(-c3cccc(C(F)(F)F)n3)nn12)C(N)=O [Example 371, (2R)-2-({2-[6-(trifluoromethyl)pyridin-2-yl][1,2,4]triazolo[1,5-c]quinazolin-5-yl}amino)butanamide] | 14.6 nM | 7.24e-08 M | – | –
8 | O=C1NCCNC[C@H]1Nc1nc2c(Br)cccc2c2nc(-c3ccccc3OC(F)(F)F)nn12 [Example 266, (6R)-6-({7-bromo-2-[2-(trifluoromethoxy)phenyl][1,2,4]triazolo[1,5-c]quinazolin-5-yl}amino)-1,4-diazepan-5-one] | 2.17 nM | 3.29e-09 M | – | –
9 | COc1ccc(-c2nc3c4cc(Cl)ccc4nc(N[C@@H]4CCCCNC4=O)n3n2)cc1 [Example 235, (3R)-3-{[9-chloro-2-(4-methoxyphenyl)[1,2,4]triazolo[1,5-c]quinazolin-5-yl]amino}azepan-2-one] | 1.14 nM | 2.34e-09 M | – | –
10 | COc1ccc(-c2nc3c4cc(Br)ccc4nc(N[C@@H]4CCCCNC4=O)n3n2)cc1 [Example 242, (3R)-3-{[9-bromo-2-(4-methoxypheny)[1,2,4]triazolo[1,5-c]quinazolin-5-yl]amino}azepan-2-one] | 3.02 nM | 3.06e-09 M | – | –

Now from value to molecule:

Row | IC50 (AHR [1]; mouse Hepa 1c1c7 cells) | IC50 (AHR [2]) | IC50 (AHR [1]; [3]) | IC50 (AHR [2]; firefly luciferase reporter) | SMILES
11 | 7750 nM | 1.01e-07 M | – | – | Cc1cc(C(F)F)c2nc(N[C@@H]3CCCCNC3=O)n3nc(-c4cnn(C)c4)nc3c2c1 [Example 406, (3R)-3-{[7-(difluoromethyl)-9-methyl-2-(1-methyl-1H-pyrazol-4-yl)[1,2,4]triazolo[1,5-c]quinazolin-5-yl]amino}azepan-2-one]
12 | – | – | 144 nM | 5.75e-08 M | CCOC(=O)[C@@H](C)Nc1nc2c(Br)cccc2c2nc(-c3cnn(C)c3)nn12 [Example 866, ethyl N-[7-bromo-2-(1-methyl-1H-pyrazol-4-yl)[1,2,4]triazolo[1,5-c]quinazolin-5-yl]-D-alaninate]
13 | – | – | 10.7 nM | 6.25e-09 M | CCn1cc(-c2nc3c4cccc(F)c4nc(N[C@@H]4CCCCNC4=O)n3n2)cn1 [Example 834, (3R)-3-{[2-(1-ethyl-1H-pyrazol-4-yl)-7-fluoro[1,2,4]triazolo[1,5-c]quinazolin-5-yl]amino}azepan-2-one]
14 | 156 nM | 1.6e-07 M | – | – | O=C1NCCCC[C@H]1Nc1nc2ccccc2c2nc(-c3cnccn3)nn12 [Example 689, (3R)-3-{[2-(pyrazin-2-yl)[1,2,4]triazolo[1,5-c]quinazolin-5-yl]amino}azepan-2-one]
15 | 0.669 nM | 7.84e-10 M | – | – | O=C1NCCCC[C@H]1Nc1nc2c(C(F)(F)F)cccc2c2nc(-c3cnn(C(F)F)c3)nn12 [Example 736, (3R)-3-({2-[1-(difluoromethyl)-1H-pyrazol-4-yl]-7-(trifluoromethyl)[1,2,4]triazolo[1,5-c]quinazolin-5-yl}amino)azepan-2-one]
16 | – | – | 12.2 nM | 6.04e-09 M | COc1ccc(-c2nc3c4ccccc4nc(N[C@H](C)C(=O)NCCN4CCN(C)CC4)n3n2)cc1 [Example 881, N^2-[2-(4-methoxyphenyl)[1,2,4]triazolo[1,5-c]quinazolin-5-yl]-N-[2-(4-methylpiperazin-1-yl)ethyl]-D-alaninamide]
17 | 6.24 nM | 6.05e-08 M | – | – | Cc1cscc1-c1nc2c3ccccc3nc(N[C@@H]3CCCNC3=O)n2n1 [Example 540]
18 | 13.2 nM | 7.03e-08 M | – | – | CCCNC(=O)[C@@H](C)Nc1nc2ccccc2c2nc(-c3cc(F)ccc3OC(F)(F)F)nn12 [Example 495, N^2-{2-[5-fluoro-2-(trifluoromethoxy)phenyl][1,2,4]triazolo[1,5-c]quinazolin-5-yl}-N-propyl-D-alaninamide]
19 | 5.71 nM | 2.22e-08 M | – | – | O=C1NCCCC[C@H]1Nc1nc2ccccc2c2nc(-c3cc(F)ccc3OC(F)(F)F)nn12 [Example 492, (3R)-3-({2-[5-fluoro-2-(trifluoromethoxy)phenyl][1,2,4]triazolo[1,5-c]quinazolin-5-yl}amino)azepan-2-one]
